Measured values from patent US5821251A, “Nitrogen heterocycles” (John Wyeth & Brother Limited, priority 1994, dated 1998).

Columns and labels:
[1] = test system: voltage gated potassium channels (transient outward current, TOC) in dorsal root ganglion (DRG) cells; assay: Procedure 1: modulation of voltage-activated K^+ currents in dorsal root ganglion (DRG) cells, block of TOC; assay type: cell-based
Excerpt: They may therefore by used to treat CNS disorders as described above such as depression, pain psychoses, anxiety, movement disorders (such as Parkinson's disease) and multiple sclerosis and in enhancing cognition, memory and learning.
Procedure 1 Modulation of voltage-activated K^+ currents in dorsal root ganglion (DRG) cells:
The method used in the culture or dorsal root ganglion cells is similar to that described by Wood et. al., Capsaicin induced ion fluxes in dorsal root ganglion cells in culture, J. Neuroscience, 8, 3208-3220) (1988). Dorsal root ganglia are dissected mainly from around the lumbar and thoracic vertebrae and placed in a conical centrifuge tube containing Ham's F14 nutrient mixture (F14:Imperial Laboratories) plus horse serum (HS: GIBCO or Flow). When all ganglia have been collected (ex ca. 14 pups) the excess medium is removed and the ganglia incubated for 30 min in "F14+HS" containing 0.1% collagenase Type 1A-S (Sigma). Excess medium is removed, ganglia washed in 4 ml F14 (no HS), resuspended and spun down at 900 g for 10 s. The supernatant is again removed and replaced with 1.8 ml F14 (no HS) plus 0.2 ml trypsin (GIBCO) at a final concentration of 0.25%. The ganglia are then incubated at 37° C. for 30 min agitating every 10 min to prevent clumping. The trypsinisation is inhibited by the addition of 6 ml "F14+HS" and cells are resuspended and centrifuged as before. The medium is removed and 2 ml added of "F14+HS" containing 0.4% DNAase 1 (Sigma). The ganglia are then triturated gently 15-20× using a siliconised pasteur pipette, filtered through a […] nylon mesh filter and collected into a centrifuge tube. The filter is further washed with 2 ml of "F14+HS" which is collected into the same tube. The suspension is spun at 900 g for 3 min, the supernatant removed and the cells resuspended in DRG Growth Medium (DRG-GM) which consists of: HAMS F14 nutrient mixture (40%, v/v), HS(10%, v/v) C6 conditioned medium (50%, v/v), penicillin/streptomycin (100 U/ml; 100 μg/ml) and NGF (30 μg/ml). Cells are then plated out onto five 60 mm poly-L-lysine-coated tissue culture petri dishes (see below).
After a few days in culture (3-7 days, usually), cells are resuspended from 60 mm dishes using a 0.25% solution of trypsin in F14. An equal volume of DRG-GM is added to inhibit the trypsin, the cells are spun at 900 g for 5 minutes and resuspended in 0.25-0.5 ml of DRG-GM. Neurites are removed by gentle trituration through a 21 g syringe needle (15-20 strokes) and a drop of the cell suspension is then placed on each of 5-6 poly-D-lysine- and laminin-coated 35 mm petri dishes (see below). After 30 minutes incubation at 37° C., each plate is flooded with ca 1.5 ml DRG-GM and after about 1 hour incubation, cells are ready for electrophysiological recording. This final step is carried out specifically in order to remove neurites which hinder good voltage-clamp of the cells.
2 ml of poly-D-lysine (Sigma), reconstituted in distilled water to 100 μg/ml, are added to each plate and left for 1-2 hours. Plates are then washed with water and left to dry. Laminin (5 μg/ml) is added as a drop to the centre of plates (previously coated with poly-D-Lys), left for 45 min before removal of excess and use of plates.
Recordings are made using an AxoClamp-2A (Axon Instruments Inc) switiching clamp amplifier using patch electrodes (4-8 Mohms), made from borosilicate glass capillary tubes (GC150TF-10, Clark Electromedical) and fire-polished. Electrodes are filled with (in mM): 140 K Gluconate, 2 MgCl2, 1.1 EGTA/KOH, 5 HEPES, 20 sucrose, 2 MgATP, 0.2 GTP; pH set to 7.2 with KOH and osmolarity adjusted with sucrose to 310 mOsm. The electrodes are then and dipped in Sigmacote (Sigma) prior to recording to reduce stray capacitance. […]

[2] = test system: transient outward potassium current (TOC) in GH3 rat pituitary cell line; assay: Procedure 2: blocking transient outward potassium currents (TOC) in the GH3 rat pituitary cell line; assay type: cell-based; conditions: GH3 cells; for % Block of TOC, PROCEDURE 2 GH3 %: 100 μM
Procedure: The compounds were also tested for blocking transient outward potassium currents (TOC) in the GH3 rat pituitary cell line according to the procedure below:
GH3 cells were obtained from either Flow Laboratories or European Centre for Animal Cell Cultures (Porton Down), and maintained in tissue culture using standard procedures and media for this cell line. Cells were plated on 35 mm plastic dishes and used subsequently for electophysiology with 1 to 10 days.
Currents were recorded using the whole-cell voltage clamp configuration of the patch clamp technique, using an Axopatch 1C amplifier (Axon Instruments). Patch electrodes were manufactured from aluminosilicate glass tubing (Clark Electomedical SM150F-10) and heat polished prior to use. Resistance was 1-5 M.OMEGA.. No electrode coating was necessary for whole-cell recording. Signal acquisition and analysis was performed using pClamp software (Axon Instruments). A p-on-4 subtraction procedure was used to remove leak and capacitative currents on line. A holding potential of -100 mV was routinely used: this avoided accumulation of slow voltage-dependent inactivation.
Two main protocols were used in testing drugs. 1) Current-voltage (I-V) curves were collected, with incrementing steps of either 10 or 20 mV. Full I-V curves were obtained both in control and drug solutions. 2) a `pharmacology` program, which involved single voltage steps fromm -100 to +60 mV, applied and collected at 20 s intervals. Compounds under investigation were applied via a `U` tube rapid application system to a small area of the recording chamber. Drug applications were always bracketed by control solutions to ensure reversibility. The recording chamber was continously perfused at 1-5 ml.min^-1. Results are expressed at % of control peak current (step form -100 to +60 mV). However, where drugs have a time dependent effect on TOC, i.e acceleration of TOC decay, results are also expressed as a % of total charge transferred within a defined period of the voltage step from -100 to +60 mV.
The standard extracellular solution contained (in mM): NaCl 135 (or choline or TRIS chloride); KCl 5; MgCl2 4; EGTA 1; TEACl 10; HEPES 10; glucose 25; pH set to 7.4 with NaOH. TTX was usually at 100-200 nM.
The intracellular (pipette) solution was comprised of (in mM): K aspartate 120; KCl 20; MgCl2 1; cAMP 1; MgATP 2; EGTA 10; HEPES 10; pH 7.4 with KOH. Other intracellular substrates were often used without noticeable effect. This solution was stored in 1 ml aliquots at -4° C., and filtered at 0.2 μm.
These recording solutions precluded activation of voltage dependent Na, Ca, delayed rectifier and Ca-activated K currents. The resulting whole-cell currents chiefly comprised the transient outward potassium current, switching on with third power kinetics reaching peak amplitudes of ~1 nA at +60 mV, and a double exponential decay (time constants of ~30 and 160 ms at +60 mV). There is no significant change in current amplitude within the normal recording period, which may extend for up to 90 min. One dish of cells usually lasts several hours.
The standard compound 4-aminopyridine is a block @ 1-5 mM. (80% block at 5 mM).

Structure (SMILES) | % Block of TOC, PROCEDURE 1 DRG % ([1]; 10 μM) | % Block of TOC, PROCEDURE 2 GH3 % [2] | further results
COc1ccc(C[C@H]2CC[C@H]3NCCC[C@H]3C2)cc1 [Example 9, (-)-(4aS,6S,8aR)-3,4,4a,5,6,7,8,8a-Decahydro-6-((4-methoxyphenyl)methyl)quinoline] | 28% |  | 
Nc1ccncc1 [4-aminopyridine, reference compound] |  |  | block (standard compound), in words ([2]; @ 1-5 mM): block; block (standard compound) ([2]; at 5 mM): 80%; block of TOC (standard compound) ([1]; at 1 mM): 100%
COc1ccc(C[C@H]2CC[C@H]3NC[C@H](CO)C[C@H]3C2)cc1 (racemic) [Example 4, (±)-(3RS,4aRS,6SR,8aRS)-1,2,3,4,4a,5,6,7,8,8a-Decahydro-3-hydroxymethyl-6-((4-methoxyphenyl)methyl)quinoline] |  | 56% | % Block of TOC, PROCEDURE 1 DRG % ([1]; 100 μM): 60%
COc1ccc(C[C@@H]2CC[C@H]3NC[C@H](CO)C[C@@H]3C2)cc1 [Example 6, (+)-(3R,4aS,6R,8aR)-1,2,3,4,4a,5,6,7,8,8a-Decahydro-3-hydroxymethyl-6-((4-methoxyphenyl)methyl)quinoline] | 29% |  | 
COc1ccc(C[C@H]2CC[C@@H]3[C@@H](CCCN3[C@H](C)c3ccccc3)C2)cc1 [Example 8, (+)-(1'R,4aS,6S,8aR)-1,2,3,4,4a,5,6,7,8,8a-Decahydro-6-((4-methoxyphenyl)methyl)-1-(1'-phenylethyl)quinoline] | 49% |  | 
COc1ccc(CC2CCC3NCC(CO)CC3C2)cc1 (stereo not drawn) [Example 1, 1,2,3,4,4a,5,6,7,8,8a-Decahydro-3-hydroxymethyl-6-((4-methoxyphenyl)methyl)quinoline] |  | 55% | 
COc1ccc(C[C@@H]2CC[C@H]3NC[C@H](CO)C[C@@H]3C2)cc1 (racemic) [Example 2, (±)-(3RS,4aSR,6RS,8aRS)-1,2,3,4,4a,5,6,7,8,8a-Decahydro-3-hydroxymethyl-6-((4-methoxyphenyl)methyl)quinoline] |  | 31% | 
COc1ccc(C[C@H]2CC[C@@H]3NC[C@H](CO)C[C@H]3C2)cc1 (relative stereo) [Example 3, (±)-(3RS,4aRS,6SR,8aSR)-1,2,3,4,4,a,5,6,7,8,8a-Decahydro-3-hydroxymethyl-6-((4-methoxyphenyl)methyl)quinoline] | 32% | 68% | 
